In brackets after ≈: the same amount, converted by molar mass. Starred links: 1 amine or outer side, 2 acyl side, 3 side chain; linkers in the order of their positions; H or OH if unused. Positions of bridges follow the written chain, without caps; N, C: chain ends. Residues, ends and D or L forms follow the SMILES beside them. 2,2'Bipyridine(5,5'-diCH2) = c1cc(-c2ccc(C[*:2])cn2)ncc1C[*:1]; Naphthalene(2,6-diCH2) = c1cc2cc(C[*:2])ccc2cc1C[*:1]
Experiments:
[1] = 48 hours cytotoxicity assay (CellTiter-Glo), liver toxicity; type: cell-based, human; conditions: 48 hours of incubation, CellTiter-Glo; read-out: Inhibitory Concentration at 50% Cytotoxicity (IC50) Human Liver Cells (HepG2)
Procedure, shortened: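 Viability from CellTiter-Glo luminescence after StAMP dilution series or vehicle acted on HepG2 cells for 48 h at 37 °C. Cells were grown in EMEM plus 10% FBS and given 4 h to attach before dosing.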

[2] = tested on: Klebsiella pneumoniae (K. pneumoniae); type: cell-based; conditions: microbroth dilution, 20-24 hours at 37° C.
Procedure, shortened: (§1)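 MIC = lowest peptide concentration without visible bacterial growth. CLSI-based microbroth dilution, MHB or MHB II, inoculum 5×10^5 CFU/ml, 20-24 h, 37 °C.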

[3] = tested on: Acinetobacter baumannii (A. baumannii); type: cell-based; conditions: microbroth dilution, 20-24 hours at 37° C.
Procedure, shortened: as §1

[4] = tested on: Escherichia coli (E. coli); type: cell-based; conditions: microbroth dilution, 20-24 hours at 37° C.
Procedure, shortened: as §1

[5] = tested on: Pseudomonas aeruginosa (P. aeruginosa); type: cell-based; conditions: microbroth dilution, 20-24 hours at 37° C.
Procedure, shortened: as §1

[6] = tested on: Staphylococcus aureus (S. aureus); type: cell-based; conditions: microbroth dilution, 20-24 hours at 37° C.
Procedure, shortened: as §1

[7] = 90 minute cytotoxicity assay (LDH release), renal toxicity; type: cell-based; conditions: 90 minutes of incubation, LDH release; read-out: Inhibitory Concentration at 50% Cytotoxicity (IC50) Human Renal Proximal Tubule Epithelial Cells (RPTEC)
Procedure, shortened: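 Released lactate dehydrogenase, read as absorbance at 490 nm after 10 min with assay reagent, serves as read-out. Renal proximal tubule epithelial cells received peptide serial dilutions or vehicle for 90 min at 37° C after overnight plating.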

Structure (SMILES) | IC50 [1] [µg/mL] | Minimum Inhibitory Concentration (MIC) K. pneumoniae [2] [µg/mL] | Minimum Inhibitory Concentration (MIC) A. baumannii [3] [µg/mL] | Minimum Inhibitory Concentration (MIC) E. coli [4] [µg/mL] | Minimum Inhibitory Concentration (MIC) P. aeruginosa [5] [µg/mL] | Minimum Inhibitory Concentration (MIC) S. aureus [6] [µg/mL] | IC50 [7] [µg/mL]
CC[C@H](C)[C@H](NC(=O)CN)C(=O)N[C@H]1CSCc2ccc3cc(ccc3c2)CSC[C@@H](C(=O)N[C@H](C(=O)N[C@@H](CCCCN)C(=O)N[C@@H](CC(N)=O)C(=O)N[C@@H](CC(C)C)C(=O)N[C@@H](CC(C)C)C(=O)N[C@H](C(=O)N[C@@H](CO)C(=O)NCC(=O)N[C@@H](CC(C)C)C(=O)N[C@@H](CCCCN)C(=O)NCC(N)=O)[C@@H](C)CC)[C@@H](C)CC)NC(=O)[C@H](CCCCN)NC(=O)CNC(=O)[C@H](C)NC(=O)[C@H](CC(C)C)NC(=O)[C@H](CCCCN)NC(=O)[C@H](CO)NC1=O [compound 55] (H-GICSKLAGKCIKNLLISGLKG-NH2; linker 3-10 via Naphthalene(2,6-diCH2); N-terminus assumed) | 53 (≈ 23.4 µM) | 16 | 8 | 8 | 32 | 32 | 23 (≈ 10.1 µM)
CC[C@H](C)[C@H](NC(=O)CN)C(=O)N[C@@H](Cc1ccccc1)C(=O)N[C@@H](CO)C(=O)N[C@@H](CCCCN)C(=O)N[C@@H](CC(C)C)C(=O)N[C@@H](C)C(=O)NCC(=O)N[C@@H](CCCCN)C(=O)N[C@H]1CSCc2ccc3cc(ccc3c2)CSC[C@@H](C(=O)NCC(=O)N[C@@H](CC(C)C)C(=O)N[C@@H](CCCCN)C(=O)NCC(N)=O)NC(=O)[C@H]([C@@H](C)CC)NC(=O)[C@H](CC(C)C)NC(=O)[C@H](CC(C)C)NC(=O)[C@H](CC(N)=O)NC(=O)[C@H](CCCCN)NC(=O)[C@H]([C@@H](C)CC)NC1=O [compound 73] (H-GIFSKLAGKCIKNLLICGLKG-NH2; linker 10-17 via Naphthalene(2,6-diCH2); N-terminus assumed) |  | 8 | 4 | 8 | 64 | 4 | 9 (≈ 3.87 µM)
CC[C@H](C)[C@H](NC(=O)CN)C(=O)N[C@@H](Cc1ccccc1)C(=O)N[C@@H](CO)C(=O)N[C@@H](CCCCN)C(=O)N[C@@H](CC(C)C)C(=O)N[C@@H](C)C(=O)NCC(=O)N[C@@H](CCCCN)C(=O)N[C@H]1CSCc2ccc(nc2)-c2ccc(cn2)CSC[C@@H](C(=O)NCC(=O)N[C@@H](CC(C)C)C(=O)N[C@@H](CCCCN)C(=O)NCC(N)=O)NC(=O)[C@H]([C@@H](C)CC)NC(=O)[C@H](CC(C)C)NC(=O)[C@H](CC(C)C)NC(=O)[C@H](CC(N)=O)NC(=O)[C@H](CCCCN)NC(=O)[C@H]([C@@H](C)CC)NC1=O [compound 72] (H-GIFSKLAGKCIKNLLICGLKG-NH2; linker 10-17 via 2,2'Bipyridine(5,5'-diCH2); N-terminus assumed) |  | 8 | 4 | 4 | 32 | 4 | 19 (≈ 8.06 µM)
